Laboratory results taken from patent publication US9006252B2, “Fused multicyclic compounds as protein kinase inhibitors” (National Health Research Institutes, priority 2008, dated 2015).
Values joined by “and” are separate entries in the source; they are usually repeats but may differ in a detail not shown here. Equal entries are not always repeated. Where two headings read alike, the source gives them in different places.

Legend:
HCT-116 cells = assay: HCT-116 cell viability, MTS assay; format: cell-based; conditions: Homo sapiens, HCT-116, 96 h, read-out: IC50 values, HCT-116 cell viability
Method: HCT-116 cell viability was examined by the MTS assay (Promega, Madison, Wis., USA). 2000 HCT-116 cells in 100 μL McCoy's 5a medium were seeded in each well of a 96-well plate. After 96-h incubation with a test compound, the cells were incubated with 20 μL of a MTS/PMS mixture (MTS/PMS ratio: 20:1) for 2 h at 37° C. in a humidified incubator with 5% CO2 to allow viable cells to convert the tetrazolium salt (MTS) into formazan. The amount/concentration of formazan, which indicates the number of live cells, was determined by measuring the absorbance at 490 nm using a PerkinElmer Victor2 plate reader (PerkinElmer, Shelton, Conn., USA).

Aurora A = target: T1, Aurora A (Homo sapiens, UniProt O14965); assay: Aurora Kinase A luminescent kinase assay (Kinase-Glo); format: biochemical; conditions: IC50 values (concentration of a test compound at which activity of 50% of Aurora A is inhibited), GST-tAurora A (123-401aa) fusion protein
T1 construct: GST-tAurora A (123-401aa) fusion protein obtained above; made in house; host or cells: Sf9 insect cells (baculovirus, pBacPAK8)
T1 sequence (O14965 123-401): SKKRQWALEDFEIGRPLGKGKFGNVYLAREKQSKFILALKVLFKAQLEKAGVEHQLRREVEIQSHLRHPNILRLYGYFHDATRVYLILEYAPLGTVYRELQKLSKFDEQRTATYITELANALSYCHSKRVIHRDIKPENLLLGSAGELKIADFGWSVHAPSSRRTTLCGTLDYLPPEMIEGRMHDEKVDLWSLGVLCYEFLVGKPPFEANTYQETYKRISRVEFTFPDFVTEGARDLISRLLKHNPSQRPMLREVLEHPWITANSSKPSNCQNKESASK
Method: The Aurora A catalytic domain with an N-terminal GST tag was constructed in pBacPAK8 plasmid and expressed in sf9 cells. […] To concentrate GST-tAurora A, buffer was replaced with Tris buffer (100 mM Tris (pH 7.5), 300 mM NaCl, 1 mM EDTA, 4 mM DTT) using Amicon ultra-15 (MWCO:30K, Millipore) to 2.4 mg/ml. After the addition of equal volume of glycerol and 0.04% Triton X-100, the proteins were stored aliquoted at −80° C.
Briefly, a test compound, enzyme, substrate-tetra(LRRWSLG), DTT and ATP were dissolved in Aur buffer (50 mM Tris-HCl pH 7.4, 10 mM NaCl, 10 mM MgCl2, and 100 μg/ml BSA) individually before the assay. […] 5 μM ATP (5 μl), 1 mM DTT (5 μl) and 0.1 mM tetra(LRRWSLG) peptide substrate (5 μl) were added into the reactions of test compounds and GST-tAurora A. The reactions were incubated at 37° C. for 90 min. 50 μl of Kinase-Glo Plus Reagent (V3771, Promega) was added into the reactions, followed by the incubation at 25° C. for 20 min.

SMILES | IC50 (HCT-116 cells; 96-h incubation, MTS) [nM] | IC50 (Aurora A) | IC50 (HCT-116 cells) [nM]
COc1cc2ncc(C#N)c(NCCc3ccc(NC(=O)Nc4cccc(F)c4)cc3)c2cc1OC [Compound 225] | 101 to 850 | 51 to 450 nM and < 1000 nM | 
CN(C)CCCOc1ccc2c(NCCc3ccc(NC(=O)Nc4ccccc4)cc3)ncnc2c1 [Compound 202] |  | 51 to 450 nM and < 1000 nM | 
COc1ccc2c(NCCc3ccc(NC(=O)Nc4ccccc4)cc3)c(C#N)cnc2c1 [Compound 212] | 101 to 850 | 51 to 450 nM and < 1000 nM | 
COc1cc2ncnc(NCCc3ccc(NC(=O)Nc4ccccc4F)cc3)c2cc1OC [Compound 246] | 101 to 850 | 51 to 450 nM and < 1000 nM | 
CN(C)CCCOc1ccc2c(NCCc3ccc(NC(=O)Nc4cccc(F)c4)cc3)ncnc2c1 [Compound 208] |  | < 1000 nM and 51 to 450 nM | 
O=C(Nc1ccccc1)Nc1ccc(CCNc2ncnc3ccccc23)cc1 [Compound 249] |  | 1 to 50 nM and < 1000 nM | 
O=C(Nc1ccccc1)Nc1ccc(CCNc2ncnc3oc(-c4cccnc4)nc23)cc1 [Compound 222] | 101 to 850 | 51 to 450 nM and < 1000 nM | 
O=C(Nc1ccccc1)Nc1ccc(CCNc2ncnc3oc(-c4ccncc4)nc23)cc1 [Compound 236] | 101 to 850 | 51 to 450 nM and < 1000 nM | 
COc1cc2ncnc(N(C)CCc3ccc(NC(=O)Nc4ccccc4)cc3)c2cc1OC [Compound 240] | < 100 | 51 to 450 nM and < 1000 nM | 
N#Cc1cnc2cc(O)ccc2c1NCCc1ccc(NC(=O)Nc2ccccc2)cc1 [Compound 229] | 101 to 850 |  | 
COc1cc2ncnc(NCCc3ccc(NC(=O)Nc4cccc(F)c4)cc3)c2cc1OC [Compound 5, 1-{4-[2-(6,7-Dimethoxy-quinazolin-4-ylamino)-ethyl]-phenyl}-3-(3-fluoro-phenyl)-urea] | < 100 | < 1000 nM and 51 to 450 nM | 
O=C(Nc1ccccc1)Nc1ncc(CCNc2ncnc3oc(-c4ccccc4)nc23)s1 [Compound 81] |  | < 1000 nM and 51 to 450 nM | 
CN(C)CCCOc1ccc2c(NCCc3ccc(NC(=O)Nc4cccc(F)c4)cc3)ncnc2c1 [Compound 207] | 101 to 850 | < 1000 nM and 51 to 450 nM | 
COc1cc2ncnc(NCCc3ccc(NC(=O)Nc4cccnc4)cc3)c2cc1OC [Compound 2, 1-{4-[2-(6,7-Dimethoxy-quinazolin-4-ylamino)-ethyl]-phenyl}-3-pyridin-3-yl-urea] | 101 to 850 | < 1000 nM and 51 to 450 nM | 
COc1cc2ncnc(OCCc3ccc(NC(=O)Nc4ccccc4)cc3)c2cc1OC [Compound 232] | 101 to 850 | 1 to 50 nM and < 1000 nM | 
O=C(Nc1ccccc1)Nc1ccc(CCNc2ncnc3cc(N4CCOCC4)ccc23)cc1 [Compound 251] | < 100 | 1 to 50 nM and < 1000 nM | 
COc1cc2ncnc(NCCc3ccc(NC(=O)Nc4cc(F)cc(F)c4)cc3)c2cc1OC [Compound 245] |  | 1 to 50 nM and < 1000 nM | 
COc1cc2ncc(C#N)c(NCCc3ccc(NC(=O)NC4CC4)cc3)c2cc1OC [Compound 226] |  | 51 to 450 nM and < 1000 nM | 
COc1cc2ncnc(NCCc3ccc(NC(=O)Nc4ccccc4)cc3)c2cc1OC [Compound 201] |  | 1 to 50 nM and < 1000 nM | 
O=C(Nc1ccccc1)Nc1ccc(CCNc2ncnc3ccccc23)cc1 [Compound 248] |  | 51 to 450 nM and < 1000 nM | < 100
O=C(Nc1ccccc1)Nc1ccc(CCNc2ncnc3oc(-c4ccc(O)cc4)nc23)cc1 [Compound 220] | 101 to 850 | 1 to 50 nM and < 1000 nM | 
O=C(Nc1ccc(CCNc2ncnc3oc(-c4ccncc4)nc23)cc1)Nc1cccc(F)c1 [Compound 250] | 101 to 850 | 51 to 450 nM and < 1000 nM | 
COc1cc2ncnc(NCCc3cnc(NC(=O)Nc4cccc(Br)c4)s3)c2cc1OC [Compound 252] | 101 to 850 | 1 to 50 nM and < 1000 nM | 
COc1cc2ncnc(NCCc3ccc(NC(=O)NC4CC4)cc3)c2cc1OC [Compound 230] |  | < 1000 nM | 
COc1cc2ncnc(NCCc3ccc(NC(=O)Nc4cccc(C(F)(F)F)c4)cc3)c2cc1OC [Compound 204] | 101 to 850 | 1 to 50 nM and < 1000 nM | 
O=C(Nc1ccccc1)Nc1ccc(CCNc2ncnc3cc(F)ccc23)cc1 [Compound 253] | < 100 | 51 to 450 nM and < 1000 nM | 
COc1ccc2c(NCCc3ccc(NC(=O)Nc4cccc(Cl)c4)cc3)c(C#N)cnc2c1 [Compound 213] | 101 to 850 |  | 
CCN(CCO)CCCOc1ccc2c(NCCc3ccc(NC(=O)Nc4ccccc4)cc3)ncnc2c1 [Compound 203] |  | 51 to 450 nM and < 1000 nM | 
COc1cc2ncnc(NCCc3cnc(NC(=O)Nc4cccc(F)c4)s3)c2cc1OC [Compound 56] | 101 to 850 | < 1000 nM and 51 to 450 nM | 
CN(C)Cc1ccccc1NC(=O)Nc1ccc(CCNc2ncnc3oc(-c4ccccc4)nc23)cc1 [Compound 72] |  | < 1000 nM and 51 to 450 nM | 

The next lines start with the values.

IC50 (HCT-116 cells; 96-h incubation, MTS) [nM] | IC50 (Aurora A) | IC50 (HCT-116 cells) [nM] | SMILES
< 100 | 51 to 450 nM and < 1000 nM |  | CN(C)c1ccc2c(NCCc3ccc(NC(=O)Nc4ccccc4)cc3)ncnc2c1 [Compound 233]
101 to 850 | < 1000 nM and 51 to 450 nM |  | COc1ccc(-c2nc3c(NCCc4ccc(NC(=O)Nc5ccccc5)cc4)ncnc3o2)cc1 [Compound 206]
 | 1 to 50 nM and < 1000 nM |  | COc1cc2ncnc(NCCc3ccc(NC(=O)Nc4ccc(F)cc4)cc3)c2cc1OC [Compound 211]
101 to 850 | < 1000 nM and 1 to 50 nM |  | COc1cc2ncnc(NCCc3ncc(NC(=O)Nc4ccccc4)s3)c2cc1OC [Compound 47]
101 to 850 | < 1000 nM and 51 to 450 nM |  | COc1cccc(NC(=O)Nc2ccc(CCNc3ncnc4cc(OC)c(OC)cc34)cc2)c1 [Compound 205]
 | < 1000 nM and 51 to 450 nM |  | N#Cc1cnc2ccsc2c1NCCc1cnc(NC(=O)Nc2cccc(Cl)c2)s1 [Compound 190, 1-(3-chlorophenyl)-3-(5-(2-(6-cyanothieno[3,2-b]pyridin-7-ylamino)ethyl)thiazol-2-yl)urea]
< 100 | 1 to 50 nM and < 1000 nM |  | COc1cc2ncnc(NCCc3ccc(NC(=O)Nc4cc(F)cc(F)c4)cc3)c2cc1OC [Compound 244]
 | < 1000 nM and 51 to 450 nM |  | COc1cc2ncc(C#N)c(NCCc3ccc(NC(=O)Nc4ccccc4)cc3)c2cc1OC [Compound 140]
 | 51 to 450 nM and < 1000 nM |  | COc1cc2ncc(C#N)c(NCCc3cnc(NC(=O)Nc4ccccc4)s3)c2cc1OC [Compound 227]
 | 51 to 450 nM and < 1000 nM |  | O=C(Nc1cccc(F)c1)Nc1ncc(CCNc2ncnc3oc(-c4ccccc4)nc23)s1 [Compound 241]
101 to 850 | < 1000 nM and 1 to 50 nM |  | CCN(CCO)CCCOc1ccc2c(NCCc3ccc(NC(=O)Nc4cccc(F)c4)cc3)ncnc2c1 [Compound 22]
< 100 | 1 to 50 nM and < 1000 nM |  | COc1cc2ncnc(NCCc3ccc(NC(=O)Nc4ccc(F)cc4)cc3)c2cc1OC [Compound 210]
101 to 850 | 1 to 50 nM and < 1000 nM |  | O=C(Nc1ccccc1)Nc1ccc(CCNc2ncnc3oc(-c4ccccn4)nc23)cc1 [Compound 237]
 | 51 to 450 nM and < 1000 nM |  | O=C(Nc1cccc(Cl)c1)Nc1ncc(CCNc2ncnc3oc(-c4ccccc4)nc23)s1 [Compound 242]
 | 1 to 50 nM and < 1000 nM |  | CCN(CCO)CCCOc1ccc2c(NCCc3ccc(NC(=O)Nc4cccc(F)c4)cc3)ncnc2c1 [Compound 209]
 | 1 to 50 nM and < 1000 nM | < 100 | COc1cc2ncnc(NCCc3ccc(NC(=O)Nc4ccccc4)cc3)c2cc1OC [Compound 1, 1-(4-(2-(6,7-dimethoxyquinazolin-4-ylamino)ethyl)phenyl)-3-phenylurea]
 | 1 to 50 nM and < 1000 nM |  | O=C(Nc1ccccc1)Nc1ccc(CCNc2ncnc3oc(-c4ccncc4)nc23)cc1 [Compound 235]
 | < 1000 nM and 51 to 450 nM |  | O=C(Nc1ccccc1)Nc1ccc(CCNc2ncnc3cc(OCCCCl)ccc23)cc1 [Compound 6, 1-(4-{2-[7-(3-Chloro-propoxy)-quinazolin-4-ylamino]-ethyl}-phenyl)-3-phenyl-urea]
< 100 | 1 to 50 nM and < 1000 nM |  | COc1cc2ncnc(NCCc3cnc(NC(=O)Nc4cccc(Cl)c4)s3)c2cc1OC [Compound 228]
101 to 850 | < 1000 nM and 51 to 450 nM |  | O=C(Nc1ccccc1)Nc1ccc(CCNc2ncnc3oc(-c4ccccc4)nc23)cc1 [Compound 7, 1-Phenyl-3-{4-[2-(2-phenyl-oxazolo[5,4-d]pyrimidin-7-ylamino)-ethyl]-phenyl}-urea]
101 to 850 | 51 to 450 nM and < 1000 nM |  | COc1ccc2ncc(C#N)c(NCCc3ccc(NC(=O)Nc4ccccc4)cc3)c2c1 [Compound 231]
101 to 850 | 1 to 50 nM and < 1000 nM |  | COc1cc2ncnc(NCCc3ccc(Nc4nc5ccccc5[nH]4)cc3)c2cc1OC [Compound 224]
101 to 850 | 1 to 50 nM and < 1000 nM |  | COc1cc2ncnc(NCCc3ccc(NC(=O)Nc4ccc(F)c(F)c4)cc3)c2cc1OC [Compound 247]
